Data as given in US20240041827A1, “COMPOSITIONS FOR THE TREATMENT OF FAT RELATED CONDITIONS AND DISORDERS” (priority 2020, published 2024).
Read-outs that look alike come from different tables or passages of the source.

System: human visceral preadipocytes
Experiment: cells
Details: for IC50: Homo sapiens
Experimental: Human visceral preadipocytes were seeded in 96-well white clear bottom plates at 10,000 cells per well in 100 μl pre-adipocyte medium and incubated overnight at 37° C. 5% CO2. On the following day, adipogenic differentiation was induced by addition of 100 μl/well differentiation medium and incubation continued for 5 days. Adipogenic differentiation was verified by microscopic evaluation, addition of adipored reagents and fluorescent measurement at Ex485 nm/Em572 nm. […] Staurosporine (1 μM) and 0.2% DMSO were used as controls. Plates were incubated at 37° C. 5% CO2 for 2, 6 and 24 hours. Following incubation, cytotoxicity was measured using Cell Titer Glo 2.0 (Promega).
Test Item RZL-12 (1-300 μM) was prepared on the day of the testing as 150 mM stock solutions in DMSO. The 150 mM represents a 500×stock of the highest desired tested concentration. The 150 mM stock solution was first serially diluted in DMSO to acquire 500×stock solutions for each of the RZL-012 concentrations. The 500×stock solutions were then diluted 1:25 in medium to acquire 20×intermediate stock solutions. Finally, the 20×intermediate stock solutions were further diluted 1:20 in the assay (on the plate) that included seeded cells.
The 600 μM represents a 20× stock of the highest desired tested concentration. […] Finally, the 20×intermediate stock solutions were further diluted 1:20 in the assay plate that included seeded cells.
Human visceral pre-adipocytes (HPrAD-vis): HPrAD-vis cells (Lonza cat #PT-5005) were thawed at 37° C. and transferred into 50 ml tubes containing pre-adipocytes PGM-2 growth medium (PBM-2, 10% FBS, 1-glutamine, GA-1000). Cells were centrifuged at 300 g for 10 minutes, the supernatant was removed (Leaving about 1 ml of wash medium for not disrupting the cells) and 2 ml fresh PGM-2 medium was added. After resuspension, cells were counted and seeded in T-75 and T25 flasks at a density of 9,000 cells/cm^2 ([…], 225,000 cells/T25 flask). Medium was changed every 2-3 days until reached confluence of 70%.
Cells were sub-cultured only once, as soon as they reached 70% confluence. For this purpose, the culture medium of each flask was removed and cells were washed once with 5 ml PBS. The flask was shaken to ensure that the entire surface was covered and the PBS was removed. Then, 3 ml/T75 flask or 1 ml/T25 flask of fresh dedicated Trypsin/EDTA solution (from Lonza) was added and the flasks were incubated for 3-4 minutes at RT until ˜90% cells were detached. The Trypsin/EDTA solution was then neutralized by addition of 6 ml/T75 flask or 3 ml/T25 flask of full PGM-2 growth medium. Cells were collected in 50 ml tubes and centrifuged 10 minutes at 300 g. The supernatant was removed and the cells were resuspended in 3 ml fresh medium. Cells were then counted using a haemacytometer slide after being diluted 1:2 in trypan blue (SIGMA). For sub-culturing, cells were seeded in new T75 flasks at a density of 9,000 cells/cm^2 containing 15 ml fresh growth medium. Alternatively, the cells were seeded in 96-well culture plates at a density of 10,000 cells/well for the cell treatments.
HPrAD-vis cells: HPrAD-vis passaged once were seeded in 96-well plates as described above (10000cells/well in 100 μl medium) and allowed to settle overnight at 37° C., 5% CO2. Following day, adipogenic differentiation was induced by addition of 100 μl/well differentiation medium and incubated for 5 days. Adipogenic differentiation was verified by microscopic evaluation, addition of adipored reagents and fluorescent measurement at Ex485 nm/Em572 nm. In the morning of day 6, test and reference items were prepared as described above. Cells' medium was replaced with 90 μl fresh differentiation medium. […] Staurosporine (1 μM) and 0.2% DMSO were used as controls. Plates were incubated at 37° C. 5% CO2 for 2, 6 and 24 hours. Following incubation, cell viability was determined using the CellTiter-Gg® viability reagent (Promega) with reading of plates for luminescence. […]

C[N+](C)(C)CCCCCn1c2ccc(Br)cc2c2cc(Br)ccc21.[Cl-] [RZL-012, 5-(3,6-dibromo-9H-carbazol-9-yl)-N,N,N-trimethylpentan-1-aminium chloride]
IC50 (2 h, read-out: IC50 of RZL-12 in the presence of Collagenase, Collagenase 0, 2 h incubation): 31.4 µM | IC50 (2 h, read-out: IC50 of RZL-12 in the presence of Collagenase, Collagenase 0.1 μM, 2 h incubation): 32.4 µM | IC50 (2 h, read-out: IC50 of RZL-12 in the presence of Collagenase, Collagenase 0.3 μM, 2 h incubation): 35.7 µM | IC50 (2 h, read-out: IC50 of RZL-12 in the presence of Collagenase, Collagenase 1 μM, 2 h incubation): 32.6 µM | IC50 (2 h, read-out: IC50 of RZL-12 in the presence of Collagenase, Collagenase 3 μM, 2 h incubation): ~31.2 µM | IC50 (2 h, read-out: IC50 of RZL-12 in the presence of Collagenase, Collagenase 10 μM, 2 h incubation): 71.3 µM | IC50 (2 h, read-out: IC50 of RZL-12 in the presence of Collagenase, Collagenase 30 μM, 2 h incubation): ~93.2 µM | IC50 (6 h, read-out: IC50 of RZL-12 in the presence of Collagenase, Collagenase 0, 6 h incubation): 34.6 µM | IC50 (6 h, read-out: IC50 of RZL-12 in the presence of Collagenase, Collagenase 0.1 μM, 6 h incubation): 44.3 µM | IC50 (6 h, read-out: IC50 of RZL-12 in the presence of Collagenase, Collagenase 0.3 μM, 6 h incubation): 45.1 µM | IC50 (6 h, read-out: IC50 of RZL-12 in the presence of Collagenase, Collagenase 1 μM, 6 h incubation): 44.2 µM | IC50 (6 h, read-out: IC50 of RZL-12 in the presence of Collagenase, Collagenase 3 μM, 6 h incubation): ~30.5 µM | IC50 (6 h, read-out: IC50 of RZL-12 in the presence of Collagenase, Collagenase 10 μM, 6 h incubation): 36.5 µM | IC50 (6 h, read-out: IC50 of RZL-12 in the presence of Collagenase, Collagenase 30 μM, 6 h incubation): 38.8 µM | IC50 (24 h, read-out: IC50 of RZL-12 in the presence of Collagenase, Collagenase 0, 24 h incubation): 22.8 µM | IC50 (24 h, read-out: IC50 of RZL-12 in the presence of Collagenase, Collagenase 0.1 μM, 24 h incubation): 38 µM | IC50 (24 h, read-out: IC50 of RZL-12 in the presence of Collagenase, Collagenase 0.3 μM, 24 h incubation): 38.5 µM | IC50 (24 h, read-out: IC50 of RZL-12 in the presence of Collagenase, Collagenase 1 μM, 24 h incubation): ~36.1 µM | IC50 (24 h, read-out: IC50 of RZL-12 in the presence of Collagenase, Collagenase 3 μM, 24 h incubation): 22.9 µM | IC50 (24 h, read-out: IC50 of RZL-12 in the presence of Collagenase, Collagenase 10 μM, 24 h incubation): 28.8 µM | IC50 (24 h, read-out: IC50 of RZL-12 in the presence of Collagenase, Collagenase 30 μM, 24 h incubation): 28.8 µM | IC50 (read-out: IC50 when combined, RZL-012 and collagenase combined): 0.02 µM | Average RZL-012 and collagenase induced cell death (% vs untreated cells) (RZL12 0.01 μM, Collagenase 0, 2 h of incubation): 10.0% | Average RZL-012 and collagenase induced cell death (% vs untreated cells) (RZL12 0.01 μM, Collagenase 0.1 μM, 2 h of incubation): 6.5% | Average RZL-012 and collagenase induced cell death (% vs untreated cells) (RZL12 0.01 μM, Collagenase 0.3 μM, 2 h of incubation): 0.8% | Average RZL-012 and collagenase induced cell death (% vs untreated cells) (RZL12 0.01 μM, Collagenase 1 μM, 2 h of incubation): 5.3% | Average RZL-012 and collagenase induced cell death (% vs untreated cells) (RZL12 0.01 μM, Collagenase 3 μM, 2 h of incubation): 20.5% | Average RZL-012 and collagenase induced cell death (% vs untreated cells) (RZL12 0.01 μM, Collagenase 10 μM, 2 h of incubation): 30.3% | Average RZL-012 and collagenase induced cell death (% vs untreated cells) (RZL12 0.01 μM, Collagenase 30 μM, 2 h of incubation): 46.4% | Average RZL-012 and collagenase induced cell death (% vs untreated cells) (RZL12 1 μM, Collagenase 0, 2 h of incubation): 7.0% | Average RZL-012 and collagenase induced cell death (% vs untreated cells) (RZL12 1 μM, Collagenase 0, 24 h of incubation): 4.88% | Average RZL-012 and collagenase induced cell death (% vs untreated cells) (RZL12 1 μM, Collagenase 0.1 μM, 2 h of incubation): 6.5% | Average RZL-012 and collagenase induced cell death (% vs untreated cells) (RZL12 1 μM, Collagenase 0.1 μM, 24 h of incubation): 8.18% | Average RZL-012 and collagenase induced cell death (% vs untreated cells) (RZL12 1 μM, Collagenase 0.3 μM, 2 h of incubation): 3.0% | Average RZL-012 and collagenase induced cell death (% vs untreated cells) (RZL12 1 μM, Collagenase 0.3 μM, 24 h of incubation): −0.25% | Average RZL-012 and collagenase induced cell death (% vs untreated cells) (RZL12 1 μM, Collagenase 1 μM, 2 h of incubation): 2.0% | Average RZL-012 and collagenase induced cell death (% vs untreated cells) (RZL12 1 μM, Collagenase 1 μM, 24 h of incubation): 16.48% | Average RZL-012 and collagenase induced cell death (% vs untreated cells) (RZL12 1 μM, Collagenase 3 μM, 2 h of incubation): 19.2% | Average RZL-012 and collagenase induced cell death (% vs untreated cells) (RZL12 1 μM, Collagenase 3 μM, 24 h of incubation): 28.74% | Average RZL-012 and collagenase induced cell death (% vs untreated cells) (RZL12 1 μM, Collagenase 10 μM, 2 h of incubation): 29.9% | Average RZL-012 and collagenase induced cell death (% vs untreated cells) (RZL12 1 μM, Collagenase 10 μM, 24 h of incubation): 64.29% | Average RZL-012 and collagenase induced cell death (% vs untreated cells) (RZL12 1 μM, Collagenase 30 μM, 2 h of incubation): 48.0% | Average RZL-012 and collagenase induced cell death (% vs untreated cells) (RZL12 1 μM, Collagenase 30 μM, 24 h of incubation): 78.45% | Average RZL-012 and collagenase induced cell death (% vs untreated cells) (RZL12 3 μM, Collagenase 0, 2 h of incubation): 5.9% | Average RZL-012 and collagenase induced cell death (% vs untreated cells) (RZL12 3 μM, Collagenase 0, 24 h of incubation): 6.40% | Average RZL-012 and collagenase induced cell death (% vs untreated cells) (RZL12 3 μM, Collagenase 0.1 μM, 2 h of incubation): −1.6% | Average RZL-012 and collagenase induced cell death (% vs untreated cells) (RZL12 3 μM, Collagenase 0.1 μM, 24 h of incubation): 3.62% | Average RZL-012 and collagenase induced cell death (% vs untreated cells) (RZL12 3 μM, Collagenase 0.3 μM, 2 h of incubation): 1.1% | Average RZL-012 and collagenase induced cell death (% vs untreated cells) (RZL12 3 μM, Collagenase 0.3 μM, 24 h of incubation): 2.09% | Average RZL-012 and collagenase induced cell death (% vs untreated cells) (RZL12 3 μM, Collagenase 1 μM, 2 h of incubation): 6.1% | Average RZL-012 and collagenase induced cell death (% vs untreated cells) (RZL12 3 μM, Collagenase 1 μM, 24 h of incubation): 16.21% | Average RZL-012 and collagenase induced cell death (% vs untreated cells) (RZL12 3 μM, Collagenase 3 μM, 2 h of incubation): 18.0% | Average RZL-012 and collagenase induced cell death (% vs untreated cells) (RZL12 3 μM, Collagenase 3 μM, 24 h of incubation): 27.36% | Average RZL-012 and collagenase induced cell death (% vs untreated cells) (RZL12 3 μM, Collagenase 10 μM, 2 h of incubation): 26.4% | Average RZL-012 and collagenase induced cell death (% vs untreated cells) (RZL12 3 μM, Collagenase 10 μM, 24 h of incubation): 63.40% | Average RZL-012 and collagenase induced cell death (% vs untreated cells) (RZL12 3 μM, Collagenase 30 μM, 2 h of incubation): 47.6% | Average RZL-012 and collagenase induced cell death (% vs untreated cells) (RZL12 3 μM, Collagenase 30 μM, 24 h of incubation): 77.35%
